How the values were obtained:
[1] = test system: Atrial natriuretic peptide receptor 1 (Oryctolagus cuniculus); test: Binding affinity for low-affinity site Atrial natriuretic peptide receptor 1 of rabbit adrenal membrane; details: Adrenal gland
[2] = Binding affinity towards low-affinity site of Atrial natriuretic peptide receptor 1 of rabbit adrenal membrane; format: tissue-based
[3] = test system: Atrial natriuretic peptide receptor 1 (Oryctolagus cuniculus); test: Binding affinity towards the low-affinity site atrionatriuretic peptide receptor 1 of rabbit adrenal membrane

CC(C)C[C@@H]1NC(=O)[C@@H](CCCN=C(N)N)NC(=O)CNC(=O)CNC(=O)[C@@H](Cc2ccccc2)NC(=O)[C@@H](C)NC(=O)[C@H](NC(=O)[C@H](CO)NC(=O)[C@@H](N)CO)CSSC[C@H](C(=O)N[C@H](Cc2ccccc2)C(=O)N[C@H](CCCN=C(N)N)C(=O)O)NC(=O)[C@@H](CC(C)C)NC(=O)[C@H](CCCN=C(N)N)NC(=O)[C@@H](CC(=O)O)NC1=O showed a KL [1] of 680 nM.

CC[C@H](C)[C@@H]1NC(=O)[C@H](CCCN=C(N)N)NC(=O)[C@@H](CC(=O)O)NC(=O)[C@H]([C@@H](C)CC)NC(=O)[C@@H](CCCN=C(N)N)NC(=O)CNC(=O)CNC(=O)[C@@H](Cc2ccccc2)NC(=O)CNC(=O)[C@@H](NC(=O)[C@H](CO)NC(=O)[C@@H](N)CO)CSSC[C@@H](C(=O)N[C@H](Cc2ccccc2)C(=O)N[C@@H](CCCCN)C(=O)O)NC1=O gave a KL [2] of 5900 nM.

With CC[C@H](C)[C@@H]1NC(=O)[C@@H](CCCN=C(N)N)NC(=O)CNC(=O)CNC(=O)[C@@H](Cc2ccccc2)NC(=O)[C@H](NC(=O)[C@H](N)CCCN=C(N)N)CSSC[C@H](C(=O)O)NC(=O)[C@@H](CCCN=C(N)N)NC(=O)[C@H](Cc2ccccc2)NC(=O)[C@@H]([C@@H](C)CC)NC(=O)[C@H](CCCN=C(N)N)NC(=O)[C@@H](CC(C)C)NC1=O the KL [1] was 680 nM.

Work on CC[C@H](C)[C@@H]1NC(=O)[C@H](CCCN=C(N)N)NC(=O)[C@@H](CC(=O)O)NC(=O)[C@H]([C@@H](C)CC)NC(=O)[C@@H](CCCN=C(N)N)NC(=O)CNC(=O)CNC(=O)[C@@H](Cc2ccccc2)NC(=O)CNC(=O)[C@@H](NC(=O)[C@H](CO)NC(=O)[C@@H](N)CO)CSSC[C@@H](C(=O)N[C@H](Cc2ccccc2)C(=O)N[C@@H](CCCCN=C(N)N)C(=O)O)NC1=O yielded a KL [2] of 320 nM.

CC[C@H](C)[C@@H]1NC(=O)[C@@H](CCCN=C(N)N)NC(=O)CNC(=O)CNC(=O)[C@@H](C2CCCCC2)NC(=O)[C@H](N)CSSC[C@H](C(N)=O)NC(=O)[C@@H](CCCN=C(N)N)NC(=O)[C@H](Cc2ccccc2)NC(=O)[C@@H](C)NC(=O)[C@H](CCCN=C(N)N)NC(=O)[C@@H](CC(=O)O)NC1=O gave a KL [1] of 800 nM.

In the case of CC[C@H](C)[C@@H]1NC(=O)[C@@H](CCCN=C(N)N)NC(=O)CNC(=O)CNC(=O)[C@@H](Cc2ccccc2)NC(=O)[C@@H](C)NC(=O)[C@H](NC(=O)[C@H](CO)NC(=O)[C@@H](N)CO)CSSC[C@H](C(=O)N[C@H](Cc2ccccc2)C(=O)N[C@H](CCCN=C(N)N)C(=O)O)NC(=O)[C@@H]([C@@H](C)CC)NC(=O)[C@H](CC(=O)O)NC(=O)[C@@H](CCCN=C(N)N)NC1=O, the KL [2] is reported as 7800 nM.

Compound CC[C@H](C)[C@@H]1NC(=O)[C@@H](CCCN=C(N)N)NC(=O)CNC(=O)CNC(=O)[C@@H](Cc2ccccc2)NC(=O)CNC(=O)[C@H](NC(=O)[C@H](CO)NC(=O)[C@@H](N)CO)CSSC[C@H](C(=O)N[C@H](Cc2ccccc2)C(=O)N[C@H](CCCN=C(N)N)C(=O)O)NC(=O)[C@@H]([C@@H](C)CC)NC(=O)[C@H](CCCN=C(N)N)NC(=O)[C@@H](CC(=O)OC)NC1=O has a KL [2] of 1400 nM.

CC[C@H](C)[C@@H]1NC(=O)[C@@H](CCCN=C(N)N)NC(=O)Cc2ccc(cc2)NC(=O)Cc2ccc(cc2)NC(=O)[C@@H](Cc2ccccc2)NC(=O)C(C)NC(=O)[C@H](NC(=O)[C@H](CO)NC(=O)[C@@H](N)CO)CSSC[C@H](C(=O)N[C@H](Cc2ccccc2)C(=O)N[C@H](CCCN=C(N)N)C(=O)O)NC(=O)[C@@H]([C@@H](C)CC)NC(=O)[C@H](CCCN=C(N)N)NC(=O)[C@@H](CC(=O)O)NC1=O (stereo in doubt) gave a KL [2] of 1400 nM.

CC[C@H](C)[C@@H]1NC(=O)[C@@H](CCCN=C(N)N)NC(=O)CNC(=O)CNC(=O)[C@@H](Cc2ccccc2)N(C)C(=O)C(C)NC(=O)[C@H](NC(=O)[C@H](CO)NC(=O)[C@@H](N)CO)CSSC[C@H](C(=O)N[C@H](Cc2ccccc2)C(=O)N[C@H](CCCN=C(N)N)C(=O)O)NC(=O)[C@@H]([C@@H](C)CC)NC(=O)[C@H](CCCN=C(N)N)NC(=O)[C@@H](CC(=O)O)NC1=O (stereo in doubt) showed a KL [2] of 290 nM.

In the case of CC[C@H](C)[C@@H]1NC(=O)[C@@H](CCCN=C(N)N)NC(=O)CNC(=O)CNC(=O)[C@@H](Cc2ccc(O)cc2)NC(=O)C(C)NC(=O)[C@H](NC(=O)[C@H](CO)NC(=O)[C@@H](N)CO)CSSC[C@H](C(=O)N[C@H](Cc2ccccc2)C(=O)N[C@H](CCCN=C(N)N)C(=O)O)NC(=O)[C@@H]([C@@H](C)CC)NC(=O)[C@H](CCCN=C(N)N)NC(=O)[C@@H](CC(=O)O)NC1=O (stereo in doubt), the KL [2] is reported as 10000 nM.

In the case of CC[C@H](C)[C@@H]1NC(=O)[C@@H](CCCN=C(N)N)NC(=O)Cc2cccc(c2)NC(=O)Cc2cccc(c2)NC(=O)[C@@H](Cc2ccccc2)NC(=O)C(C)NC(=O)[C@H](NC(=O)[C@H](CO)NC(=O)[C@@H](N)CO)CSSC[C@H](C(=O)N[C@H](Cc2ccccc2)C(=O)N[C@H](CCCN=C(N)N)C(=O)O)NC(=O)[C@@H]([C@@H](C)CC)NC(=O)[C@H](CCCN=C(N)N)NC(=O)[C@@H](CC(=O)O)NC1=O (stereo in doubt), the KL [2] is reported as 810 nM.

CC[C@H](C)[C@@H]1NC(=O)[C@@H](CCCN=C(N)N)NC(=O)CNC(=O)CNC(=O)[C@@H](C2CCCCC2)NC(=O)[C@H](NC(=O)[C@H](N)Cc2c[nH]cn2)CSSC[C@H](C(N)=O)NC(=O)[C@@H](CCCN=C(N)N)NC(=O)[C@H](Cc2ccccc2)NC(=O)[C@@H]([C@@H](C)CC)NC(=O)[C@H](CCCN=C(N)N)NC(=O)[C@@H](CC(=O)O)NC1=O gave a KL [2] of 190 nM.

With CC[C@H](C)[C@@H]1NC(=O)[C@@H](CCCN=C(N)N)NC(=O)CNC(=O)CNC(=O)[C@@H](Cc2ccccc2)NC(=O)[C@@H](C)NC(=O)[C@H](NC(=O)[C@H](CO)NC(=O)[C@@H](N)CO)CSSC[C@H](C(=O)N[C@H](Cc2ccccc2)C(=O)N[C@H](CCCN=C(N)N)C(=O)O)NC(=O)[C@@H]([C@@H](C)CC)NC(=O)[C@H](CCCN=C(N)N)NC(=O)[C@@H](CC(N)=O)NC1=O the KL [2] was 540 nM.

For CC[C@H](C)[C@@H]1NC(=O)[C@@H](CCCN=C(N)N)NC(=O)CNC(=O)CNC(=O)[C@@H](Cc2ccccc2)NC(=O)CNC(=O)[C@H](NC(=O)[C@H](CO)NC(=O)[C@@H](N)CO)CSSC[C@H](C(=O)N[C@H](Cc2ccccc2)C(=O)N[C@@H](CCCN=C(N)N)C(=O)O)NC(=O)[C@@H]([C@@H](C)CC)NC(=O)[C@H](CCCN=C(N)N)NC(=O)[C@@H](CC(=O)O)NC1=O, the KL [2] was 620 nM.

In the case of CC[C@H](C)[C@@H]1NC(=O)[C@@H](CCCN=C(N)N)NC(=O)CNC(=O)CNC(=O)[C@@H](C2CCCCC2)NC(=O)[C@H](NC(=O)[C@H](N)CCCN=C(N)N)CSSC[C@H](C(N)=O)NC(=O)[C@@H](CCCN=C(N)N)NC(=O)[C@@H]2Cc3ccccc3CN2C(=O)[C@@H]([C@@H](C)CC)NC(=O)[C@H](CCCN=C(N)N)NC(=O)[C@@H](CC(=O)O)NC1=O, the KL [2] is reported as 270 nM.

CC[C@H](C)[C@@H]1NC(=O)[C@@H](CCCN=C(N)N)NC(=O)CNC(=O)CNC(=O)[C@@H](Cc2ccccc2)NC(=O)[C@@H](C)NC(=O)[C@H](NC(=O)[C@H](CO)NC(=O)[C@@H](N)CO)CSSC[C@H](C(=O)N[C@H](Cc2ccccc2)C(=O)N[C@H](CCCN=C(N)N)C(=O)O)NC(=O)[C@@H]([C@@H](C)CC)NC(=O)[C@H](CCCN=C(N)N)NC(=O)CNC1=O showed a KL [2] of 740 nM.

With CC[C@H](C)[C@@H]1NC(=O)[C@@H](CCCN=C(N)N)NC(=O)CNC(=O)CNC(=O)[C@@H](Cc2ccccc2)NC(=O)[C@H](NC(=O)[C@H](N)CCCN=C(N)N)CSSC[C@H](C(=O)O)NC(=O)[C@@H](CCCN=C(N)N)NC(=O)[C@H](Cc2ccccc2)NC(=O)[C@@H]([C@@H](C)CC)NC(=O)[C@H](CCCN=C(N)N)NC(=O)[C@@H](CC(=O)O)NC1=O the KL [2] was 660 nM.

Work on CC[C@H](C)[C@@H]1NC(=O)[C@@H](CCCN=C(N)N)NC(=O)CNC(=O)CNC(=O)[C@@H](Cc2ccccc2)NC(=O)CNC(=O)[C@H](NC(=O)[C@H](CO)NC(=O)[C@@H](N)CO)CSSC[C@H](C(=O)N[C@@H](Cc2ccccc2)C(=O)N[C@H](CCCN=C(N)N)C(=O)O)NC(=O)[C@@H]([C@@H](C)CC)NC(=O)[C@H](CCCN=C(N)N)NC(=O)[C@@H](CC(=O)O)NC1=O yielded a KL [2] of 780 nM.

Work on CC[C@H](C)[C@@H]1NC(=O)[C@@H](CCCN=C(N)N)NC(=O)CNC(=O)CNC(=O)[C@@H](Cc2ccccc2)NC(=O)[C@@H](C)NC(=O)[C@H](NC(=O)[C@H](CO)NC(=O)[C@@H](N)CO)CSSC[C@H](C(=O)N[C@H](Cc2ccccc2)C(=O)N[C@H](CCCN=C(N)N)C(=O)O)NC(=O)[C@@H]([C@@H](C)CC)NC(=O)[C@H](CCCN=C(N)N)NC(=O)[C@@H](CO)NC1=O yielded a KL [2] of 510 nM.

CC[C@H](C)[C@@H]1NC(=O)[C@@H](CCCN=C(N)N)NC(=O)CNC(=O)CNC(=O)[C@@H](Cc2ccccc2)NC(=O)CNC(=O)[C@H](NC(=O)[C@H](CO)NC(=O)[C@@H](N)CO)CSSC[C@H](C(=O)N[C@H](Cc2ccccc2)C(=O)NCC(=O)O)NC(=O)[C@@H]([C@@H](C)CC)NC(=O)[C@H](CCCN=C(N)N)NC(=O)[C@@H](CC(=O)O)NC1=O gave a KL [2] of 3100 nM.

CC[C@H](C)[C@@H]1NC(=O)[C@@H](CCCN=C(N)N)NC(=O)CNC(=O)CNC(=O)[C@@H](C2CCCCC2)NC(=O)CCSSC[C@H](C(N)=O)NC(=O)[C@@H](CCCN=C(N)N)NC(=O)[C@H](Cc2ccccc2)NC(=O)[C@@H]([C@@H](C)CC)NC(=O)[C@H](CCCN=C(N)N)NC(=O)[C@@H](CC(=O)O)NC1=O gave a KL [2] of 300 nM.

For CC[C@H](C)[C@@H]1NC(=O)[C@@H](CCCN=C(N)N)NC(=O)CNC(=O)CNC(=O)[C@@H](Cc2ccc(OC)c(OC)c2)NC(=O)C(C)NC(=O)[C@H](NC(=O)[C@H](CO)NC(=O)[C@@H](N)CO)CSSC[C@H](C(=O)N[C@H](Cc2ccccc2)C(=O)N[C@H](CCCN=C(N)N)C(=O)O)NC(=O)[C@@H]([C@@H](C)CC)NC(=O)[C@H](CCCN=C(N)N)NC(=O)[C@@H](CC(=O)O)NC1=O (stereo in doubt), the KL [2] was 13000 nM.

CC[C@H](C)[C@@H]1NC(=O)[C@@H](CCCN=C(N)N)NC(=O)CNC(=O)CNC(=O)[C@@H](Cc2ccccc2)NC(=O)[C@@H](C)NC(=O)[C@H](NC(=O)[C@H](CO)NC(=O)[C@@H](N)CO)CSSC[C@H](C(=O)N[C@H](Cc2ccccc2)C(=O)N[C@H](CCCN=C(N)N)C(=O)O)NC(=O)[C@@H]([C@@H](C)CC)NC(=O)[C@H](CCCN=C(N)N)NC(=O)[C@@H](C)NC1=O showed a KL [2] of 1000 nM.

CC[C@H](C)[C@@H]1NC(=O)[C@@H](CCCN=C(N)N)NC(=O)CNC(=O)CNC(=O)[C@@H](C2CCCCC2)NC(=O)[C@H](N)CSSC[C@H](C(N)=O)NC(=O)[C@@H](CCCN=C(N)N)NC(=O)[C@H](Cc2ccccc2)NC(=O)[C@@H]([C@@H](C)CC)NC(=O)[C@H](C)NC(=O)[C@@H](CC(=O)O)NC1=O showed a KL [3] of 8.9 µM.

— ChEMBL document CHEMBL1125386, “Small atrial natriuretic peptide analogues: design, synthesis, and structural requirements for guanylate cyclase activation” (J Med Chem, 1992)
